As usually defined, the mass density is mass per unit of volume. The speed of sound is how fast a sound wave travels through the sample.

± gives the expanded uncertainty stated by the source.

The record followed here is the NIST ThermoML archive (doi:10.1021/je0504459).

For data set [1] the following is noted: 101 kPa, Liquid; for speed of sound: Sing-around technique in a fixed-path interferometer.
Data set [2] in a line: xn = mol fraction of the nth substance listed. The settings on record: 101 kPa, Liquid, x2 = 0; for speed of sound: Sing-around technique in a fixed-path interferometer.

For the compound `CCCCCCCO` [heptan-1-ol], in data set [1] (303.15 K), the kinematic viscosity turned out to be 6.19e-06 ± 7.1e-08 m2/s, the mass density stood at 814.94 ± 0.57 kg/m3 and the speed of sound turned out to be 1312 ± 3 m/s. Further, in data set [1] (313.15 K), the kinematic viscosity amounted to 4.59e-06 ± 5.5e-08 m2/s, the mass density was determined as 807.77 ± 0.6 kg/m3 and the speed of sound turned out to be 1278 ± 3 m/s.

As for `CCCCCCCO` [heptan-1-ol] + ClC(Cl)Cl, in data set [2] (303.15 K), the speed of sound was 1312 ± 3 m/s, the kinematic viscosity was found to be 6.19e-06 ± 7.1e-08 m2/s and the mass density turned out to be 814.94 ± 0.57 kg/m3. In addition, in data set [2] (313.15 K), the speed of sound came to 1278 ± 3 m/s, the kinematic viscosity came to 4.59e-06 ± 5.5e-08 m2/s and the mass density worked out at 807.77 ± 0.6 kg/m3.

For `CCCCCCO` [hexan-1-ol], in data set [1] (303.15 K), the kinematic viscosity came out at 4.68e-06 ± 5.6e-08 m2/s, the mass density was 811.65 ± 0.57 kg/m3 and the speed of sound was found to be 1289 ± 3 m/s. Also, in data set [1] (313.15 K), the kinematic viscosity came to 3.63e-06 ± 4.4e-08 m2/s, the mass density came out at 804.24 ± 0.6 kg/m3 and the speed of sound is 1256 ± 3 m/s.

Take `CCCCCCO` [hexan-1-ol] + ClC(Cl)Cl: in data set [2] (303.15 K), the speed of sound was 1289 ± 3 m/s, the kinematic viscosity is 4.68e-06 ± 5.6e-08 m2/s and the mass density is 811.65 ± 0.57 kg/m3. Moreover, in data set [2] (313.15 K), the speed of sound came out at 1256 ± 3 m/s, the kinematic viscosity amounted to 3.63e-06 ± 4.4e-08 m2/s and the mass density amounted to 804.24 ± 0.6 kg/m3.

On to `CCCCCO` [pentan-1-ol], for which, in data set [1] (303.15 K), the kinematic viscosity is 3.73e-06 ± 4.2e-08 m2/s, the mass density came to 808.6 ± 0.44 kg/m3 and the speed of sound came out at 1264 ± 3 m/s. Further, in data set [1] (313.15 K), the kinematic viscosity is 2.89e-06 ± 3.3e-08 m2/s, the mass density was 800.99 ± 0.48 kg/m3 and the speed of sound is 1228 ± 3 m/s.

With `CCCCCO` [pentan-1-ol] + ClC(Cl)Cl, in data set [2] (303.15 K), the speed of sound came out at 1264 ± 3 m/s, the kinematic viscosity is 3.73e-06 ± 4.2e-08 m2/s and the mass density turned out to be 808.6 ± 0.44 kg/m3. Moreover, in data set [2] (313.15 K), the speed of sound was 1228 ± 3 m/s, the kinematic viscosity worked out at 2.89e-06 ± 3.3e-08 m2/s and the mass density was found to be 800.99 ± 0.48 kg/m3.

In the case of `ClC(Cl)Cl` [trichloromethane], in data set [1] (303.15 K), the kinematic viscosity stood at 3.63e-07 ± 8e-09 m2/s, the mass density turned out to be 1469.21 ± 1.1 kg/m3 and the speed of sound was 969 ± 2 m/s. Moreover, in data set [1] (313.15 K), the kinematic viscosity was found to be 3.39e-07 ± 8e-09 m2/s, the mass density is 1449.74 ± 1.1 kg/m3 and the speed of sound is 934 ± 2 m/s.
